Results published in US20070264679A1, “Method for analyzing the activity of lipoxygenase using a water-soluble substrate” (Chungnam National University Industry Collaboration …, priority 2006, published 2007).

What was measured:
[1] = target: T1, Reticulocyte LOX (Oryctolagus cuniculus, UniProt P12530); test: Kinetics of oxygenation of linoleoylated substrates by reticulocyte LOX; assay type: biochemical, Rabbit; settings: reticulocyte LOX 8.2 units/ml, 50 mM phosphate buffer pH 7.4, 25° C.; for Km: substrate 3-100 μM
T1 construct: purchased Biomol Inc. (Plymouth Meeting, Pa., USA)
T1 sequence (P12530 1-663): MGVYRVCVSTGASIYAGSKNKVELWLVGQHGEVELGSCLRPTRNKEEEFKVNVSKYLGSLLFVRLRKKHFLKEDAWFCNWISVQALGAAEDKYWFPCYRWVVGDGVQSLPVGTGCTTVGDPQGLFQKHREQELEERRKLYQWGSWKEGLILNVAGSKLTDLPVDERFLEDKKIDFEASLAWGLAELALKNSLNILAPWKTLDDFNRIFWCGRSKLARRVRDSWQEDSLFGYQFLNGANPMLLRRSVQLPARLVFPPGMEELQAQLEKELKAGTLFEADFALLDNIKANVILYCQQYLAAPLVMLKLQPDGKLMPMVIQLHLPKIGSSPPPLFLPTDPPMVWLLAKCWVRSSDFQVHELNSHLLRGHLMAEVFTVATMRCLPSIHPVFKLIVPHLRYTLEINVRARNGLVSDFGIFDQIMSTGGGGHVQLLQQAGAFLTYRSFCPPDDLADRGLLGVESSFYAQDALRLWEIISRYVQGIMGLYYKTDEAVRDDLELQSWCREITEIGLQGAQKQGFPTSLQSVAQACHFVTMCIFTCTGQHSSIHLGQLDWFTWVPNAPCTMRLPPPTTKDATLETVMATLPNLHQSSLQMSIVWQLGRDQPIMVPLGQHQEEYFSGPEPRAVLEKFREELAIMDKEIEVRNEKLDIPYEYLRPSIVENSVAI
Text: (§1) Data were expressed as means ±S.D. of results from at least three independent experiments.

[2] = target: T2, Porcine leukocyte LOX (Sus scrofa, UniProt P16469); test: Kinetics of oxygenation of linoleoylated substrates by leukocyte LOX; assay type: biochemical; settings: porcine leukocyte LOX 1.5 units/ml, 100 mM phosphate buffer pH 7.5, 5 mM EDTA; for Vm: 0.03% Tween 20; for Km: substrate 3-100 μM, 0.03% Tween 20, 25° C.
T2 construct: purchased Cayman Chemical Co. (Ann Arbor, Mich., USA)
T2 sequence (P16469 1-663): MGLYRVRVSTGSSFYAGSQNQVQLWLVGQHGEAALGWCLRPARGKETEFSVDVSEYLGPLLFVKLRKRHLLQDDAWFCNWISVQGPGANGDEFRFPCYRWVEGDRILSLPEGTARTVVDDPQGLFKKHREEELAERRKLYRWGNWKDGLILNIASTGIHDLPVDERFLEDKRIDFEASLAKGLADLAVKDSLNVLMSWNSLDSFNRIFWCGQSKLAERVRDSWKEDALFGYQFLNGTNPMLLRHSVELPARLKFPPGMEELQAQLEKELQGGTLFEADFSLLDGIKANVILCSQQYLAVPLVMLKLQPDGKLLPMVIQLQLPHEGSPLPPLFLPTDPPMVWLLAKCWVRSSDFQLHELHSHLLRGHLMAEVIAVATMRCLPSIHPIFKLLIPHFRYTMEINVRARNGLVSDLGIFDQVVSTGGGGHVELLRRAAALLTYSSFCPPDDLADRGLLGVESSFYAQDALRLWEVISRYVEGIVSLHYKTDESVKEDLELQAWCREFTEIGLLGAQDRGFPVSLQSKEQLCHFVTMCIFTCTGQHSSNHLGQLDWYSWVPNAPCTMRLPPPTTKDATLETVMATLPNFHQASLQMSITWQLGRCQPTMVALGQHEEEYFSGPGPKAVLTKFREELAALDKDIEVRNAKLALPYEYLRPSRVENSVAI
Text: as §1

CCCCC/C=C\C/C=C\CCCCCCCC(=O)OCC(O)COP(=O)([O-])OCC[N+](C)(C)C (centres unmarked) [Linoleoyl-lysoPC, 1-linoleoyl Lysophosphatidylcholine] showed a Vm [1] of 1622 ± 19 units/mg, a Km [1] of 17.5 ± 0.9 µM and a Vm [2] of 14.42 ± 0.78 units/mg. For the same compound, the Km [2] was 15.1 ± 1.34 µM.
CCCCC/C=C\C/C=C\CCCCCCCC(=O)O [Linoleic acid, linoleic acid] was tested, and the Vm [1] was 545 ± 5 units/mg, the Km [1] was 12.1 ± 0.8 µM and the Vm [2] was 32.7 ± 1.93 units/mg. For the same compound, the Km [2] was 31.2 ± 4.6 µM.
